The source of these data is ChEMBL document CHEMBL3507680, “University of Dundee, Gates Library screen for HepG2 cell viability”.

The series can be described thus: Human HepG2 cell viability assay in 384 well format. The series is classed as toxicity, cell-based. Further details: dose 125 nL, time 70.5 hour; concentration not given beside the values. The following applies: HepG2 cells, read-out: Inhibition.
`COc1ccc(OC)c(CCNc2ncc(S(N)(=O)=O)s2)c1`: the cytotoxicity at 70.5 h came to 0.207%.
Next, `COc1ccc(OC)c(CN(C)c2ncc(S(N)(=O)=O)s2)c1`: -10.9%; `CS(=O)(=O)c1nnc(NC(=O)CCc2cccs2)[nH]1`: 17.8%.
Next, `CN(CCn1cccn1)S(=O)(=O)c1ccc(C#N)cc1`: -8.98%; `CCS(=O)(=O)CCNC(=O)NCc1ccccc1-n1cccn1`: 2.95%.
Next, `CSC(CNS(=O)(=O)c1cnn(C)c1)c1cccc(Cl)c1` (stereo not given): -6.72%; `CC(C)Oc1cccc(CC(=O)N(CC(N)=O)C2CCCC2)c1`: -6.57%; `CCOc1ccc(CN(C)C(=O)COc2ccc(C)nc2)cc1`: -8.96%.
Take `COc1ccccc1C1(CNc2snc(Cl)c2C#N)CCCC1`: the cytotoxicity at 70.5 h amounted to 19.8%.
Next, `CCCn1c(O)nnc1SCC1OCCc2ccccc21` (stereo not given): -7.64%; `FC(F)(F)c1cc(NCCCn2cccn2)nc(-c2cccnc2)n1`: 22.2%.
Next, `Cn1c(N)nnc1SCC1OCCc2ccccc21` (stereo not given): 6.39%; `Cn1cccc(NC(=O)N2CCC(CSc3ccccc3)C2)c1=O` (stereo not given): -13.5%.
As for `Cc1cc(NCc2csc(-c3ccco3)n2)ccc1C(N)=O`, the cytotoxicity at 70.5 h is -6.99%.
Next, `O=C(N1CCC(O)(C(F)(F)F)C1)C1(c2ccc(Cl)cc2)CC1` (stereo not given): 18.9%; `CC(C)CC(C(=O)N1CCCSCC1)N1CCCCC1=O` (stereo not given): -3.18%.
Next, `Cc1ccc(CNc2cnn(CC(F)F)c2)cc1C`: -0.638%; `CN1CCN(S(=O)(=O)c2cncc(F)c2)c2ccccc2C1`: -11.8%; `Cc1cc(F)c(S(=O)(=O)N(C)CCn2cccn2)cc1F`: -9.11%.
Turning to `Cc1ccc(OCc2nnc(SCC3CCCN(C)C3)o2)cc1` (stereo not given), the cytotoxicity at 70.5 h is -8.56%.
Next, `O=C(Cc1ccccc1F)NCC1CCN(CCN2CCOCC2)C1` (stereo not given): 2.01%; `CCc1nnsc1C(=O)N(C)Cc1ccco1`: -1.63%.
Take `O=C(NCC1CCOC1)N1CCN(c2ncccn2)CC1` (stereo not given): the cytotoxicity at 70.5 h was 0.214%.
Next, `CCNC(=O)CNS(=O)(=O)c1cc(Br)ccc1F`: -2.68%.
On to `CC1COCCN1C(=O)NCCn1ccnc1` (stereo not given), for which the cytotoxicity at 70.5 h is -3.25%.
Consider `Cc1cc(C(=O)N2CCn3cc(CN4CCCCC4)nc3C2)no1`, for which the cytotoxicity at 70.5 h is -9.93%.
Next, `Cc1cc(C(=O)N2CCn3cc(CN(C)C)nc3C2)no1`: -7.02%; `O=C(c1ccccc1F)N1CC[C@@H]2CN(c3ncccn3)CCO[C@@H]2C1`: 4.95%; `CN1CCC2(CC1)OC(C(=O)NCc1cccnc1)Cn1ccnc12` (stereo not given): -11.2%.
Next, `COc1cccc(CNc2c(C)nn(C(C)C)c2C)c1`: -2.2%; `Cn1cc(CN2CCC3(CC2)CC(Nc2nccs2)CO3)cn1` (stereo not given): 16.9%.
Next, `Cn1cc(C2COC3(CCN(C(=O)c4ccccn4)CC3)C2)cn1` (stereo not given): -12.1%.
Turning to `O=C(CC1CC1)N1CCc2ncc(CN3CCOCC3)n2CC1`, the cytotoxicity at 70.5 h was -13.3%.
Next, `O=C(N1CCOCC1)N1CCc2ncc(CN3CCCCC3)n2CC1`: -12.1%.
For `CNC(=O)C1Cn2ccnc2C2(CCN(Cc3cccs3)CC2)O1` (stereo not given), the cytotoxicity at 70.5 h worked out at 11.6%.
On to `Cc1ccc(C(=O)N2CC[C@]3(C[C@@H](OCc4ccccn4)CO3)C2)nc1`, for which the cytotoxicity at 70.5 h was found to be 12.9%.
Next, `O=C(NCc1ccccn1)[C@H]1COC[C@H]2CN(CC3CC3)C[C@H]21`: -10.6%.
Next, `O=C(NCc1ccccn1)[C@@H]1COC[C@H]2CN(C3CCC3)C[C@H]21`: -13.4%.
`CNC(=O)C1Cn2ccnc2C2(CCN(Cc3ccncc3)CC2)O1` (stereo not given): the cytotoxicity at 70.5 h was -10.9%.
Next, `CCOCc1ccc(CNC2=NCCCN2)cc1`: -2.49%.
